Experimental data published in patent publication US20070249620A1, “Urea Derivative” (priority 2004, published 2007).

How the values were obtained:
[1] = biological target: T1, mouse DGAT1 (Mus musculus, UniProt Q9Z2A7); assay: DGAT1 inhibitory effect test (microsome fraction, [14C]-oleoyl-CoA, triglyceride radioactivity by TLC); type: biochemical; conditions: 0.5 h; concentration of the test compound 0.1 μg/ml; mouse DGAT1 microsomes, 23° C., 30 minutes; read-out: Inhibitory ratio
T1 construct: made in house; host or cells: insect cells (High Five, Sf9, Sf21, etc.), baculovirus expression system (Invitrogen)
T1 sequence (Q9Z2A7 1-498): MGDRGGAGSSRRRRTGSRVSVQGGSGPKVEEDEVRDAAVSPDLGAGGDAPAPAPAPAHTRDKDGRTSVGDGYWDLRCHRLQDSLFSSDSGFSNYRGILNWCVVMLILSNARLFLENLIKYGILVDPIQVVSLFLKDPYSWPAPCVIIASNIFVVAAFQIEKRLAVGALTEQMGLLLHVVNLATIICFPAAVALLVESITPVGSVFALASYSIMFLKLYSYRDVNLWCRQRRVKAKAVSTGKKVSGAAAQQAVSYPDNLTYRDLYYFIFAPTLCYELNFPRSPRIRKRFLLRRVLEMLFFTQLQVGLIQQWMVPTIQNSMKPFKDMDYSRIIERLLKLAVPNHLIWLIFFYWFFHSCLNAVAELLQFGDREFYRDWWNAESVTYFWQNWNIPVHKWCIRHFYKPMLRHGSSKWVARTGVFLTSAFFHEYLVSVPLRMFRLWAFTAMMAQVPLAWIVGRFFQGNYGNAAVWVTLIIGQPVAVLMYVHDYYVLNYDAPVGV
Method: The cDNA which encodes mouse DGAT1 was cloned from a mouse cDNA library by polymerase chain reaction (hereinafter referred to as “PCR”) and introduced into an insect cell virus vector (baculovirus expression system, Invitrogen). After insect cells (High Five, Sf9, Sf21, etc., Invitrogen) were infected with the virus, the cells were collected in buffer A [0.1M sucrose, 50 mM KCl, 40 mM potassium phosphate (pH 7.4), 30 mM EDTA, 1% Protease inhibitor cocktail (SIGMA, P-8340)] and crushed with a Polytron homogenizer. The supernatant obtained by subjecting the homogenate to low speed centrifugal processing (10,000 ×g, 30 minutes) was further subjected to higher-speed centrifugal processing (100,000 ×g, 60 minutes) and the precipitate was resuspended in buffer A as the microsome fraction and used as DGAT1 enzyme. The DGAT1 enzyme was divided into small volumes and stored at −80° C.
(2) DGAT1 Inhibitory Effect Test
The reaction liquid of the following composition [175 mM Tris-HCl (pH 8.0), 8 mM MgCl2, 1 mg/ml BSA, 0.5 mM 1,2-dioleoyl-sn-glycerol (EtOH solution of 10-fold concentration, 10% added), 30 μM[14C]-oleoyl-CoA (about 50 mCi/mmol), 0.5% triton X-100, DGAT1 enzyme (10 μg) obtained in Test Example 1(1), test compound or vehicle (DMSO/MeOH, 7:3 solution, 5% added), total volume 50 μl] was incubated at room temperature (23° C.) for 30 minutes. A reaction terminating solution (70 μl) consisting of isopropanol/1-heptane/water (80:20:2, v/v/v) was added to the reaction solution and stirred, and subsequently stirred with water (30 μl) and 1-heptane (100 μl). The 1-heptane layer (50 μl) was spotted onto a TLC plate and developed with a developing solvent consisting of 1-hexane/diethyl ether/acetic acid (85:15:1, v/v/v). Radioactivity of triglyceride fraction was quantified by BAS2000 bio image analyzer (Fuji Film) and the inhibitory effect of the test compounds was calculated by the following formula through comparison with control. Here, radioactivity at no reaction (0 minutes incubation) was assumed as background. Inhibitory ratio=100−[(Radioactivity when test compound was added)−(Background)]/[(Radioactivity by control)−(Background)]×100

CCOc1cccc(NC(=O)Nc2ccc(C3CCN(C(=O)Nc4ccc(OCCO)cc4Cl)CC3)cc2)c1 [Example 264, 4-{4-[3-(3-ethoxy-phenyl)-ureido]-phenyl}-piperidine-1-carboxylic acid [2-chloro-4-(2-hydroxy-ethoxy)-phenyl]-amide]
melting point: 129 to 134 °C
inhibition at 0.1 µg/mL [1]: ≥ 50%

CCOc1ccc(NC(=O)Nc2ccc(N3CCN(C(=O)Nc4c(C)cccc4Cl)CC3)cc2)cc1 [Example 159, 4-{4-[3-(4-ethoxy-phenyl)-ureido]-phenyl}-piperazine-1-carboxylic acid (2-chloro-6-methyl-phenyl)-amide]
melting point: 229 to 230 °C
inhibition at 0.1 µg/mL [1]: ≥ 50%

Cc1cccnc1NC(=O)N1CCN(c2ccc(NC(=O)Nc3ccccc3F)cc2)CC1 [Example 295, 4-{4-[3-(2-fluoro-phenyl)-ureido]-phenyl}-piperazine-1-carboxylic acid (3-methyl-pyridin-2-yl)-amide]
melting point: > 250 °C (dec.)
inhibition at 0.1 µg/mL [1]: ≥ 50%

O=C(Nc1ccc(N2CCN(C(=O)Nc3ccc(OCCO)cc3Cl)CC2)cc1)Nc1ccccc1F [Example 255, 4-{4-[3-(2-fluoro-phenyl)-ureido]-phenyl}-piperazine-1-carboxylic acid [2-chloro-4-(2-hydroxy-ethoxy)-phenyl]-amide]
melting point: 213 to 217 °C
inhibition at 0.1 µg/mL [1]: ≥ 50%

CCOc1ccc(F)cc1NC(=O)Nc1ccc(N2CCN(C(=O)Nc3c(F)cccc3C(F)(F)F)CC2)cc1 [Example 93, 4-{4-[3-(2-ethoxy-5-fluoro-phenyl)-ureido]-phenyl}-piperazine-1-carboxylic acid (2-fluoro-6-trifluoromethyl-phenyl)-amide]
melting point: 153 to 155 °C
inhibition at 0.1 µg/mL [1]: ≥ 50%

CCOc1ccc(F)cc1NC(=O)Nc1ccc(N2CCN(C(=O)Nc3c(C)cccc3Cl)CC2)cc1 [Example 91, 4-{4-[3-(2-ethoxy-5-fluoro-phenyl)-ureido]-phenyl}-piperazine-1-carboxylic acid (2-chloro-6-methyl-phenyl)-amide]
melting point: 197 to 199 °C
inhibition at 0.1 µg/mL [1]: ≥ 50%

COc1ccc(F)cc1NC(=O)Nc1ccc(N2CCN(C(=O)Nc3ncccc3C)CC2)nc1 [Example 298, 4-{5-[3-(5-fluoro-2-methoxy-phenyl)-ureido]-pyridin-2-yl}-piperazine-1-carboxylic acid (3-methyl-pyridin-2-yl)-amide]
melting point: 196 to 198 °C
inhibition at 0.1 µg/mL [1]: ≥ 50%

COc1ccc(F)cc1NC(=O)Nc1ccc(N2CCN(C(=O)Nc3c(F)cccc3C(F)(F)F)CC2)cc1 [Example 100, 4-{4-[3-(5-fluoro-2-methoxy-phenyl)-ureido]-phenyl}-piperazine-1-carboxylic acid (2-fluoro-6-trifluoromethyl-phenyl)-amide]
melting point: 181 to 183 °C
inhibition at 0.1 µg/mL [1]: ≥ 50%

COc1ccc(NC(=O)N2CCN(c3ccc(NC(=O)Nc4cc(C)ccc4OC)cc3)CC2)c(C)c1 [Example 73, 4-{4-[3-(2-methoxy-5-methyl-phenyl)-ureido]-phenyl}-piperazine-1-carboxylic acid (4-methoxy-2-methyl-phenyl)-amide]
melting point: 193 to 195 °C
inhibition at 0.1 µg/mL [1]: ≥ 50%

CCOc1ccc(F)cc1NC(=O)Nc1ccc(N2CCN(C(=O)OC(C)(C)C)CC2)nc1 [Example 46, 4-{5-[3-(2-ethoxy-5-fluoro-phenyl)-ureido]-pyridin-2-yl}-piperazine-1-carboxylic acid tert-butyl ester]
melting point: 180 °C
inhibition at 0.1 µg/mL [1]: ≥ 50%

O=C(Nc1ccc(C2CCN(C(=O)Nc3ccc(OCC(O)CO)cc3Cl)CC2)cc1)Nc1ccccc1F (stereo not drawn) [Example 292, 4-{4-[3-(2-fluoro-phenyl)-ureido]-phenyl}-piperidine-1-carboxylic acid [2-chloro-4-(2,3-dihydroxy-propoxy)-phenyl]-amide]
melting point: 170 to 175 °C
inhibition at 0.1 µg/mL [1]: ≥ 50%

COc1ccc(C)cc1NC(=O)Nc1ccc(N2CCN(C(=O)Nc3ccc(OCCO)cc3C(F)(F)F)CC2)cc1 [Example 209, 4-{4-[3-(2-methoxy-5-methyl-phenyl)-ureido]-phenyl}-piperazine-1-carboxylic acid [4-(2-hydroxy-ethoxy)-2-trifluoromethyl-phenyl]-amide]
melting point: 175 to 177 °C
inhibition at 0.1 µg/mL [1]: ≥ 50%

CCOc1ccccc1NC(=O)Nc1ccc(N2CCN(C(=O)Nc3c(C)cccc3OC)CC2)nc1 [Example 187, 4-{5-[3-(2-ethoxy-phenyl)-ureido]-pyridin-2-yl}-piperazine-1-carboxylic acid (2-methoxy-6-methyl-phenyl)-amide]
melting point: 129 to 130 °C
inhibition at 0.1 µg/mL [1]: ≥ 50%

CCOc1ccc(C)cc1NC(=O)Nc1ccc(N2CCN(C(=O)Nc3ccccc3C(F)(F)F)CC2)cc1 [Example 83, 4-{4-[3-(2-ethoxy-5-methyl-phenyl)-ureido]-phenyl}-piperazine-1-carboxylic acid (2-trifluoromethyl-phenyl)-amide]
melting point: 219 to 220 °C
inhibition at 0.1 µg/mL [1]: ≥ 50%

COc1ccc(C)cc1NC(=O)Nc1ccc(N2CCN(C(=O)Nc3ncccc3C)CC2)c(F)c1 [Example 312, 4-{2-fluoro-4-[3-(2-methoxy-5-methyl-phenyl)-ureido]-phenyl}-piperazine-1-carboxylic acid (3-methyl-pyridin-2-yl)-amide]
melting point: 188 to 190 °C
inhibition at 0.1 µg/mL [1]: ≥ 50%

Cc1nc(NC(=O)Nc2ccc(N3CCN(C(=O)Nc4cc(OCCO)ccc4Cl)CC3)nc2)sc1C [Example 237, 4-{5-(3-(4,5-dimethyl-thiazol-2-yl)-ureido)-pyridin-2-yl}-piperazine-1-carboxylic acid {2-chloro-5-(2-hydroxy-ethoxy)-phenyl}-amide]
melting point: 128 to 129 °C
inhibition at 0.1 µg/mL [1]: ≥ 50%

CCOc1ccc(F)cc1NC(=O)Nc1ccc(N2CCN(C(=O)Nc3ccc(C)cc3Cl)CC2)cc1 [Example 122, 4-{4-[3-(2-ethoxy-5-fluoro-phenyl)-ureido]-phenyl}-piperazine-1-carboxylic acid (2-chloro-4-methyl-phenyl)-amide]
melting point: 155 to 157 °C
inhibition at 0.1 µg/mL [1]: ≥ 50%

Cc1nc(NC(=O)Nc2ccc(N3CCN(C(=O)Nc4ccc(OCCO)cc4Cl)CC3)cc2)sc1C [Example 272, 4-{4-[3-(4,5-dimethyl-thiazol-2-yl)-ureido]-phenyl}-piperazine-1-carboxylic acid [2-chloro-4-(2-hydroxy-ethoxy)-phenyl]-amide]
melting point: 186 to 187 °C
inhibition at 0.1 µg/mL [1]: ≥ 50%

CCOc1ccc(F)cc1NC(=O)Nc1ccc(N2CCN(C(=O)Nc3c(C)cccc3C)CC2)cc1 [Example 92, 4-{4-[3-(2-ethoxy-5-fluoro-phenyl)-ureido]-phenyl}-piperazine-1-carboxylic acid (2,6-dimethyl-phenyl)-amide]
melting point: 205 to 206 °C
inhibition at 0.1 µg/mL [1]: ≥ 50%

COc1ccc(C)cc1NC(=O)Nc1ccc(C2=CCN(C(=O)Nc3ccc(OCC(O)CO)cc3C(F)(F)F)CC2)cc1 (stereo not drawn) [Example 282, 4-{4-[3-(2-methoxy-5-methyl-phenyl)-ureido]-phenyl}-3,6-dihydro-2H-pyridine-1-carboxylic acid [4-(2,3-dihydroxy-propoxy)-2-trifluoromethyl-phenyl]-amide]
melting point: 135 to 137 °C
inhibition at 0.1 µg/mL [1]: ≥ 50%

COc1ccc(C)cc1NC(=O)Nc1ccc(C2=CCN(C(=O)Nc3ccc(OCCO)cc3Cl)CC2)cc1 [Example 256, 4-{4-[3-(2-methoxy-5-methyl-phenyl)-ureido]-phenyl}-3,6-dihydro-2H-pyridine-1-carboxylic acid [2-chloro-4-(2-hydroxy-ethoxy)-phenyl]-amide]
melting point: 117 to 120 °C
inhibition at 0.1 µg/mL [1]: ≥ 50%
